In ChEMBL document CHEMBL1146993, “Synthesis and structure-activity relationships of novel dipeptides and reduced dipeptides as ligands for melanocortin subtype-4 receptor” (Bioorg Med Chem Lett, 2006) one finds Ki data, which are given here for 13 molecules.

Format in all cases: cell-based
The target of one assay is Melanocortin receptor 4 (Homo sapiens, UniProt P32245). Nature of the assay: Displacement of [125I]NDP-alpha-MSH from cloned human MC4R expressed in HEK293 cells. (Displacement assays read how much labelled ligand stays bound in the presence of the test substance.)
The target in assay [1] is Melanocyte-stimulating hormone receptor (Homo sapiens, UniProt Q01726). As to the kind of experiment: Displacement of [125I]NDP-alpha-MSH from cloned human MC1R expressed in HEK293 cell.
The target in the next assay is Melanocortin receptor 5 (Homo sapiens, UniProt P33032). Nature of the assay: Displacement of [125I]NDP-alpha-MSH from cloned human MC5R expressed in HEK293 cell.
In the next assay the target is Melanocortin receptor 3 (Homo sapiens, UniProt P41968). As to the kind of experiment: Displacement of [125I]NDP-alpha-MSH from cloned human MC3R expressed in HEK293 cell.
Chain of Melanocortin receptor 3 (P41968 whole entry): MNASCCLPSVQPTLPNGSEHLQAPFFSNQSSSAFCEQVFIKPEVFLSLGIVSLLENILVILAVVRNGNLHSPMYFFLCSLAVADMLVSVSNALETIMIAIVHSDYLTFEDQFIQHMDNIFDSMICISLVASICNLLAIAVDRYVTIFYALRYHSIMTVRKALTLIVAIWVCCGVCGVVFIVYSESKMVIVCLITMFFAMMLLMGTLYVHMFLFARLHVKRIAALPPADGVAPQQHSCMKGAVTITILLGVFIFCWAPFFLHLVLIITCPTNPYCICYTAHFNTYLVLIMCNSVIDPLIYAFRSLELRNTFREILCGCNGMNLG

Chain of Melanocortin receptor 5 (P33032 whole entry): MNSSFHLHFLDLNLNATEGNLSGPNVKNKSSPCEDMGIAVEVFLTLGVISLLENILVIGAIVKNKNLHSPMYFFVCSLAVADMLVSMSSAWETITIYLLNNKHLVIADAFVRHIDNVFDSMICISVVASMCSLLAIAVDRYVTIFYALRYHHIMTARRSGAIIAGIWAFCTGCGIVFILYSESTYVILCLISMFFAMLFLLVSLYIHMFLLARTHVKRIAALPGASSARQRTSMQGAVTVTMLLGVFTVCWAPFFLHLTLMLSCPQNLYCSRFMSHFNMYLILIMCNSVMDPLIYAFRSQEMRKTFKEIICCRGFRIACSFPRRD
Chain of Melanocortin receptor 4 (P32245 whole entry): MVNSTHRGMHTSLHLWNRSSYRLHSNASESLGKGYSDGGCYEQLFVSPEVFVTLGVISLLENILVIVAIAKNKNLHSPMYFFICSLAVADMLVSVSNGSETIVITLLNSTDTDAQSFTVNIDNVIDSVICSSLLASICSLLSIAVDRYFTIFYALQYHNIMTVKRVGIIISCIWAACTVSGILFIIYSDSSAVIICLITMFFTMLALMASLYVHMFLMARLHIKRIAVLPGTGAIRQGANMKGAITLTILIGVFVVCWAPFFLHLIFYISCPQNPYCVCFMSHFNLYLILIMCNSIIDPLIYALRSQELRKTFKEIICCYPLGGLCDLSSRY
Chain of Melanocyte-stimulating hormone receptor (Q01726 whole entry): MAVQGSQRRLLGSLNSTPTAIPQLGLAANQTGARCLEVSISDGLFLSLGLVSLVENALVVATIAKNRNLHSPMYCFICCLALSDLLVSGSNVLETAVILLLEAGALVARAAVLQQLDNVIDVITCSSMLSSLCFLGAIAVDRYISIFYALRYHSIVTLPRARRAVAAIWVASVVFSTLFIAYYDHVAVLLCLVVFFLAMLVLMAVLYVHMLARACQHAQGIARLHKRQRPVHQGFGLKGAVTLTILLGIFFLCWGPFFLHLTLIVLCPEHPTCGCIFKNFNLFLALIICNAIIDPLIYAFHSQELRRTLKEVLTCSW

One may read the Ki as the equilibrium dissociation constant of an inhibitor or competing ligand from its target. The low end stands for a stronger hold on the target, the high end for a looser hold on the target. Take `CCN(CC)CC(c1ccccc1F)N1CCN(C(=O)[C@@H](Cc2ccc(Cl)cc2)NC(=O)c2cc3ccccc3cn2)CC1` (some centres undefined): the Ki on Melanocortin receptor 4 is 0.0956 µM; in assay [1] it was 7 µM; at Melanocortin receptor 5, 0.92 µM; at Melanocortin receptor 3, 1.4 µM.

In the case of `CCN(CC)CC(c1ccccc1F)N1CCN(C(=O)[C@@H](Cc2ccc(Cl)cc2)NC(=O)[C@H]2Cc3ccccc3CN2)CC1` (some centres undefined), the Ki on Melanocortin receptor 4 was 0.0406 µM; in assay [1] it was 5.8 µM; at Melanocortin receptor 5 it was 0.95 µM; on Melanocortin receptor 3 it was 7 µM.

Turning to `CCN(CC)CC(c1ccccc1F)N1CCN(C(=O)[C@@H](Cc2ccc(Cl)cc2)NC(=O)CC2NCCc3ccccc32)CC1` (some centres undefined), the Ki on Melanocortin receptor 4 was 0.0104 µM; in assay [1] it was 3 µM; on Melanocortin receptor 5, 0.91 µM; on Melanocortin receptor 3 it was 4.2 µM.

Turning to `CCN(CC)CC(c1ccccc1F)N1CCN(C(=O)[C@@H](Cc2ccc(Cl)cc2)NC(=O)C2Cc3ccccc3C(C)(C)N2)CC1` (some centres undefined), the Ki on Melanocortin receptor 4 was 0.0058 µM; in assay [1], 7 µM; at Melanocortin receptor 5, 0.42 µM; at Melanocortin receptor 3, 1.9 µM.

Take `CCN(CC)CC(c1ccccc1F)N1CCN(C(=O)[C@@H](Cc2ccc(Cl)cc2)NC(=O)CC2NCc3ccccc32)CC1` (some centres undefined): the Ki is 0.0073 µM at Melanocortin receptor 4, 6 µM in assay [1], 1.2 µM on Melanocortin receptor 5 and 3.4 µM at Melanocortin receptor 3.

In the case of `CCN(CC)CC(c1ccccc1F)N1CCN(C(=O)[C@@H](Cc2ccc(Cl)cc2)NC(=O)CC2c3ccccc3CN2C)CC1` (some centres undefined), the Ki at Melanocortin receptor 4 is 0.0173 µM; in assay [1], 8.6 µM; at Melanocortin receptor 5, 2 µM; on Melanocortin receptor 3 it was 4.6 µM.

As for `CCN(CC)CC(c1ccccc1F)N1CCN(C(=O)[C@@H](Cc2ccc(Cl)cc2)NC(=O)CC2(C)NCc3ccccc32)CC1` (some centres undefined), the Ki at Melanocortin receptor 4 was found to be 0.0737 µM; in assay [1], 20 µM; on Melanocortin receptor 5 it was 1.4 µM; at Melanocortin receptor 3, 16 µM.

`CCN(CC)CC(c1ccccc1Cl)N1CCN(C(=O)[C@@H](Cc2ccc(Cl)cc2)NC(=O)CC2NCc3ccccc32)CC1` (stereo in doubt; 40a) had a Ki at Melanocortin receptor 4 of 0.178 µM. That is a sub-micromolar value.

Turning to `CCN(CC)CC(c1ccccc1Cl)N1CCN(C(=O)[C@@H](Cc2ccc(Cl)cc2)NC(=O)CC2NCc3ccccc32)CC1` (stereo in doubt; 40b), the affinity on Melanocortin receptor 4, expressed as Ki, was 0.0181 µM.

At Melanocortin receptor 4, `CCN(CC)CC(c1ccccc1Cl)N1CCN(C(=O)[C@@H](Cc2ccc(Cl)cc2)NC(=O)CC2NCc3ccccc32)CC1` (stereo in doubt; 41a) showed an inhibition constant Ki of 0.107 µM.

As for `CCN(CC)CC(c1ccccc1Cl)N1CCN(C(=O)[C@@H](Cc2ccc(Cl)cc2)NC(=O)CC2NCc3ccccc32)CC1` (stereo in doubt; 41b), the Ki at Melanocortin receptor 4 was found to be 0.0053 µM.

`CCN(CC)CC(c1ccccc1Cl)N1CCN(C(=O)[C@@H](Cc2ccc(Cl)cc2)NC(=O)CC2NCCc3ccccc32)CC1` (stereo in doubt; 42): the Ki on Melanocortin receptor 4 amounted to 0.0302 µM.

With `CCN(CC)CC(c1ccccc1Cl)N1CCN(C(=O)[C@@H](Cc2ccc(Cl)cc2)NC(=O)CC2NCCc3ccccc32)CC1` (stereo in doubt; 43), the affinity on Melanocortin receptor 4 corresponds to a Ki of 0.0064 µM.
